According to patent publication US20250195553A1, “Use of Genipin-1-B-D-Gentiobioside in Preparation of Drug” (Guizhou Bailing Group Pharmaceutical Co., Ltd., priority 2023, published 2025):
Like-named read-outs stand apart in the source and are kept apart here.

Key:
[1] = test system: Mycoplasma Pneumoniae (MP); assay: Mycoplasma pneumoniae-infected mouse pneumonia model: lung index; assay type: in vivo, BALB/C mice; set-up: First Batch Inhibition Rate: unit not given here
[2] = test system: Mycoplasma Pneumoniae (MP); assay: Inflammatory factors in lung tissue of MP-infected mice (ELISA); assay type: in vivo, BALB/C mice; settings: 42 mg/kg
Protocol: […] Each group consisted of 10 mice, with an equal number of males and females. Except for the normal control group, all mice were lightly anesthetized with isoflurane and infected intranasally with Mycoplasma Pneumoniae (50 μl per mouse) for three consecutive days. On the day of infection, each treatment group received nebulized medication once daily for four consecutive days, while the normal control group and model control group received nebulized saline under the same conditions. On the fifth day, the mice were weighed, sacrificed by cervical dislocation, and their lung tissues were dissected, weighed, and used to calculate the lung index and lung index inhibition rate; measure the levels of inflammatory factors in the lung tissue; measure the serum CRP levels; and conduct pathological examinations of the lung tissue. The results were statistically analyzed using the t-test for intergroup comparisons.
(1) Sample Collection and Storage: Tissue Homogenate Samples: After weighing, lung tissues were collected from 8 mice in each group and stored at −80° C. The MP Fastprep-24 5G Rapid Sample Preparation System was used to homogenize the tissues, followed by centrifugation at […] and 3000 r/min for 10 minutes using a low-temperature high-speed centrifuge. The supernatant was then aspirated, aliquoted, and stored at −80° C. for future use, avoiding repeated freeze-thaw cycles.
(2) The microplate, which had been equilibrated to room temperature, was removed from the sealed bag. Different concentrations of standards were added to the corresponding wells, with 50 μL per well. For experimental samples, 10 μL of sample was added to each well, followed by 40 μL of diluent. Except for the blank wells, 100 μL of HRP (Horseradish Peroxidase) was added to each well. The reaction wells were sealed with sealing tape and incubated at 37° C. for 1 hour. The plate was then washed with wash buffer four times. After the final wash, the plate was inverted and all residual liquid was patted dry on absorbent paper. 50 μL of both Substrate A and Substrate B were added to each well. The reaction wells were then sealed with sealing tape and incubated at 37° C. for 15 minutes. After that, 50 μL of stop solution was added to each well, and the absorbance at 450 nm was measured using a microplate reader within 15 minutes. The results were then calculated.

[3] = test system: Mycoplasma Pneumoniae (MP); assay: Pathological changes in lung tissue of MP-infected mice (HE staining); assay type: in vivo, BALB/C mice; set-up: Alveolitis Lesion Degree / Bronchial Damage / Histological Damage Degree: scale not given here; settings: Azithromycin Group
Protocol: Fifty BALB/C mice, weighing 14±1 g, were randomly divided into five groups: a normal control group, a model control group, an azithromycin control group, a high-dose Genipin-1-β-D-gentiobioside group (75 mg/ml) with 15-minute nebulization, and a low-dose Genipin-1-β-D-gentiobioside group (37.5 mg/ml) with 15-minute nebulization. Each group consisted of 10 mice, with an equal number of males and females. Except for the normal control group, all mice were lightly anesthetized with isoflurane and infected intranasally with Mycoplasma Pneumoniae (50 μl per mouse) for three consecutive days. On the day of infection, each treatment group received nebulized medication once daily for four consecutive days, while the normal control group and model control group received nebulized saline under the same conditions. On the fifth day, the mice were weighed, sacrificed by cervical dislocation, and their lung tissues were dissected, weighed, and used to calculate the lung index and lung index inhibition rate; measure the levels of inflammatory factors in the lung tissue; measure the serum CRP levels; and conduct pathological examinations of the lung tissue. The results were statistically analyzed using the t-test for intergroup comparisons.
2.4 Pathological Changes in Mouse Lung Tissue (HE Staining Method)

[4] = test system: Human Coronavirus OC43 (HCoV-OC43); assay type: in vivo; settings: 90 mg/kg administration by gavage
[5] = test system: Human Coronavirus OC43 (HCoV-OC43); assay type: in vivo; settings: mouse, in vivo
[6] = test system: Human Respiratory Syncytial Virus (RSV); assay: RSV viral load in mouse lung tissue (RT-PCR), nebulization; assay type: in vivo; settings: dosage 82.5 (mg/ml), nebulization time 25 min
Protocol: […] Each group consisted of 10 mice, with an equal number of males and females. Except for the normal control group, all mice were lightly anesthetized with isoflurane and infected with respiratory syncytial virus (RSV) via intranasal administration, with each mouse receiving 35 μl of the virus. On the day of infection, the treatment groups began inhalation administration. Each group received nebulization for 25 minutes once daily for four consecutive days. The normal control group and the model control group received nebulized saline under the same conditions. On the fifth day, after weighing, the mice were sacrificed by cervical dislocation, and their lung tissues were dissected, weighed, and used to calculate the lung index and lung index inhibition rate. The lung tissues were also retained for virus load, pathological examination, and inflammatory factor detection. The results were statistically analyzed using the t-test for intergroup comparisons.
After dissecting the mice, the lung tissues were collected and stored in separate containers at −80° C. in a low-temperature freezer. The lung tissues were then removed from the −80° C. freezer and placed in a clean mortar. A small amount of liquid nitrogen was poured into the mortar, and the tissues were ground into powder using a pestle. The powder was collected in a 1.5 ml centrifuge tube, and 1 ml of TRIzol Reagent was immediately added. The tube was gently tapped at the bottom to mix the sample and ensure it was resuspended as soon as possible. The centrifuge tube was then placed horizontally at room temperature and incubated for 20 minutes. Next, it was centrifuged at 4° C. and 12,000 rpm for 10 minutes. The clear supernatant was transferred to a new 1.5 ml centrifuge tube, and 0.2 ml of chloroform was added. The tube was tightly capped, vigorously shaken for 15 seconds, and then incubated at room temperature for 2-3 minutes until the liquid separated into layers. After centrifuging at 4° C. and 12,000 rpm for 15 minutes, the transparent supernatant was carefully transferred to a new 1.5 ml centrifuge tube. Then, 0.5 ml of isopropanol was added, mixed well, and incubated at room temperature for 30 minutes. Following centrifugation at 4° C. and 12,000 rpm for 10 minutes, the supernatant was discarded. The precipitate was gently washed with 1 ml of 75% ethanol (to allow the white precipitate to float slightly), and then centrifuged at 4° C. and 7,500 rpm for 5 minutes. The supernatant was completely aspirated, and the RNA precipitate was briefly dried for 5-10 minutes. The precipitate was then dissolved in 20 μl of DEPC (Diethylpyrocarbonate)-treated water and stored in a −80° C. low-temperature freezer.
Treatment of Control Nucleic Acid: DEPC-H2O was used as a negative control. For the positive control, a series of four concentrations were prepared by gradient dilution at 10^7, 10^6, 10^5, and 10^4 copies/ml.
Reagent Preparation: Mix n×18 μl of RSV nucleic acid fluorescent PCR detection mixture, n×1 μl of internal control, and n×1 μl of RT-PCR enzyme (where n is the number of reaction tubes). Shake vigorously for a few seconds and centrifuge at 3000 rpm for a few seconds.
Sample Addition: Dispense 20 μl of the above mixture into each PCR tube. Then, add 5 μl of sample nucleic acid extract, DEPC-H2O, and positive control to the respective PCR tubes. Tightly close the tube caps, centrifuge for a few seconds to ensure all liquids are at the bottom, and immediately proceed with PCR amplification.
PCR Amplification: Place the reaction tubes in a quantitative fluorescent PCR instrument. Set the cycling parameters as follows: 45° C. for 10 minutes; 95° C. for 15 minutes; then 40 cycles of 95° C. for 15 seconds→60° C. for 60 seconds. Single-point fluorescent detection is performed at 60° C., with a reaction volume of 25 μl.
Fluorescent Channel Selection: Select the FAM and HEX/VIC/JOE channels for detection. […]

[7] = test system: Lipopolysaccharide (LPS)-induced pneumonia model in mice; assay: Inflammatory factors in lung tissue of LPS-induced pneumonia mice (ELISA); assay type: in vivo, ICR mice; settings: dosage 50 (mg/ml), i.v.
Protocol: (§1) Sixty healthy mice, weighing 18˜20 g, half male and half female, were selected and randomly grouped after stratification by weight; they were divided into a normal control group, a model control group, three Genipin-1-β-D-gentiobioside dose groups (150 mg/kg/d, 75 mg/kg/d, 37.5 mg/kg/d), and a positive control drug Sivelestat Sodium 50 mg/kg/d group, with 10 mice in each group, half male and half female. After grouping, each treatment group was administered intravenously at 20 ml/kg once daily for 2 consecutive days, while the normal control group and model control group were injected with physiological saline. One hour after the second dose, except for the normal control group, the other groups were lightly anesthetized with isoflurane, and a 20 mg/ml LPS physiological saline solution was administered intranasally to the mice at 0.05 ml/mouse to induce the pneumonia model. Six hours after infection, the animals were sacrificed, dissected, and their lungs were removed and weighed to calculate the lung index (lung index=lung weight/body weight×100%).
(1) Sample Collection and Storage: Tissue homogenate samples: The lung tissues of mice were collected and weighed, including those from mice numbered 1, 2, 3, 6, 7, and 8 in each group. The tissues were stored at […] An ultrasonic cell disruptor was used to homogenize the tissues, followed by centrifugation at […] and 1000 r/min for 10 minutes using a low-temperature high-speed centrifuge. The supernatant was then collected, aliquoted, and stored at −80° C. for future use, avoiding repeated freeze-thaw cycles.
(2) The microwell plate, which had been equilibrated to room temperature, was removed from the sealed bag. Different concentrations of standards, experimental samples, or quality control samples were added to the corresponding wells, with 100 μL per well. The reaction wells were sealed with sealing tape and incubated at room temperature for 2 hours. The plate was then washed with wash buffer, repeating the operation four times. After the final wash, the plate was inverted and all residual liquid was patted dry on absorbent paper. Next, 100 μL of enzyme-labeled detection antibody was added to each microwell. The reaction wells were sealed again with sealing tape and incubated at room temperature for another 2 hours. The washing step was repeated as described above. Then, 100 μL of substrate solution was added to each microwell and incubated at room temperature for 30 minutes, protected from light. Within 30 minutes after adding 100 μL of stop solution to each microwell, the absorbance at 450 nm was measured using a microplate reader. The results were then calculated.

[8] = test system: Lipopolysaccharide (LPS)-induced pneumonia model in mice; assay: LPS-induced pneumonia model in mice, intravenous injection: lung index; assay type: in vivo, ICR mice; settings: 50 mg/kg i.v. once daily 2 days
Protocol: as §1

[9] = 42 mg/kg administration by gavage, first batch
[10] = 42 mg/kg administration by gavage

CC[C@H]1OC(=O)[C@H](C)[C@@H](O[C@H]2C[C@@](C)(OC)[C@@H](O)[C@H](C)O2)[C@H](C)[C@@H](O[C@@H]2O[C@H](C)C[C@H](N(C)C)[C@H]2O)[C@](C)(O)C[C@@H](C)CN(C)[C@H](C)[C@@H](O)[C@]1(C)O [Azithromycin, azithromycin, reference compound]
First Batch Inhibition Rate [1, 9]: 65.93
First Batch Lung Index [1, 9]: 0.77 ± 0.05
Second Batch Inhibition Rate [1, 10]: 98.72
Second Batch Lung Index [1, 10]: 0.62 ± 0.09
Second Batch Inhibition Rate ([1]; injection administration): 98.26
Second Batch Lung Index ([1]; injection administration): 0.62 ± 0.06
Inflammatory Factor Levels in Lung Tissue IL-1β [2]: 144.98 ± 15.93 pg/mL
Inflammatory Factor Levels in Lung Tissue IL-6 [2]: 85.26 ± 25.59 pg/mL
Inflammatory Factor Levels in Lung Tissue TNF-α [2]: 345.86 ± 53.85 pg/mL
Alveolitis Lesion Degree [3]: 59.70
Bronchial Damage [3]: 54.80
Histological Damage Degree [3]: 2.43 ± 0.32
Interstitial Inflammatory Cell Infiltration [3]: 58.80

CCN(CC)CCCC(C)Nc1ccnc2cc(Cl)ccc12 (stereo not drawn) [Chloroquine, Chloroquine Phosphate, reference compound]
Inhibition Rate (lung index) [4]: 96.56%
Lung Index [4]: 0.73 ± 0.11 g lung weight × 100 g/body weight
Inhibition Rate (lung index) [5]: 42.72%
Lung Index [5]: 0.80 ± 0.05 g lung weight × 100 g/body weight

NC(=O)c1ncn([C@@H]2O[C@H](CO)[C@@H](O)[C@H]2O)n1 [Ribavirin, reference compound]
Inhibition Rate (viral load) [6]: 69.54%
Viral Load in lung tissue [6]: 17063.48 ± 16203.78 copies/ng

CC(C)(C)C(=O)Oc1ccc(S(=O)(=O)Nc2ccccc2C(=O)NCC(=O)O)cc1 [Sivelestat Sodium, reference compound]
Inflammatory Factor Levels in Lung Tissue IL-6 [7]: 15.79 ± 2.08 pg/mL
Inflammatory Factor Levels in Lung Tissue IL-10 [7]: 36.11 ± 4.87 pg/mL
Inflammatory Factor Levels in Lung Tissue TNF-α [7]: 98.88 ± 11.21 pg/mL
Inhibition Rate (lung index) [8]: 85.50
Lung Index ([8]; 6 h after LPS): 0.86 ± 0.07 g/100 g body weight
